Reference: patent EP2276483B1, “SOLID FORMS COMPRISING (+)-2-[1-(3-ETHOXY-4-METHOXYPHENYL)-2-METHYLSULFONYLETHYL]-4-ACETYLAMINOISOINDOLINE-1,3-DIONE, COMPOSITIONS THEREOF, AND USES THEREOF” (CELGENE CORPORATION, priority 2008, dated 2009)

Key:
[1] = tested on: patients with severe plaque-type psoriasis; format: in vivo, human
[2] = molecular target: T1, PDE5 from human platelets (Homo sapiens, UniProt O76074); test: PDE5 enzyme assay; format: biochemical
T1 construct: PDE5 from human platelets; from tissue; host or cells: human platelets

[3] = molecular target: PDE7 purified from Hut78 human T cells (Homo sapiens, UniProt Q13946); test: PDE7 enzyme assay; format: biochemical
Method: PDE7 is a cAMP-selective PDE expressed mainly in T cells and in skeletal muscle. T cell-derived cytokines such as IL-2 and IFN-γ are potentially regulatable via PDE7 inhibition. […] Compounds were tested against the PDE7 preparation in the presence of 10 nM cAMP as described for PDE4 in Table 1.

TNF-α = test: Human Whole Blood LPS-induced TNF-α assay; format: cell-based
Method: The ability of compounds to inhibit LPS-induced-TNF-α production by human whole blood was measured essentially as described below for the LPS-induced TNF-α assay in human PBMC, except that freshly drawn whole blood was used instead of PBMC.
Lipopolysaccharide (LPS) is an endotoxin produced by gram-negative bacteria such as E. coli which induces production of many pro-inflammatory cytokines, including TNF-α. In peripheral blood mononuclear cells (PBMC), the TNF-α produced in response to LPS is derived from monocytes, which comprise approximately 5-20% of the total PBMC. Compounds were tested for the ability to inhibit LPS-induced TNF-α production from human PBMC as previously described (Muller et al., 1996, J. Med. Chem., 39:3238). PBMC from normal donors were obtained by Ficoll Hypaque (Pharmacia, Piscataway, NJ, USA) density centrifugation. Cells were cultured in RPMI (Life Technologies, Grand Island, NY, USA) supplemented with 10% AB± human serum (Gemini Bio-products, Woodland, CA, USA), 2 mM L-glutamine, 100 U/ml penicillin, and 100 µg/ml streptomycin (Life Technologies).
PBMC (2 x 10^5 cells) were plated in 96-well flat-bottom Costar tissue culture plates (Coming, NY, USA) in triplicate. Cells were stimulated with LPS (Sigma, St. Louis, MO, USA) at 100 ng/ml in the absence or presence of compounds. […]

LTB4 = test: fMLF-induced LTB4 production in neutrophils; format: cell-based; conditions: Neutrophil; human neutrophils; 1 µM fMLF
Method: N-formyl-methionine-leucine-phenylalanine (fMLF) is a bacterially derived peptide that activates neutrophils to rapidly degranulate, migrate, adhere to endothelial cells, and release leukotriene LTB4, a product of arachidonic acid metabolism and itself a neutrophil chemoattractant. Compounds were tested for the ability to block fMLF-induced neutrophil LTB4 production as previously described (Hatzelmann and Schudt, 2001, J. Pharm. Exp. Ther., 297:267-279), with the following modifications. Neutrophils were isolated as described above and resuspended in phosphate-buffered saline without calcium or magnesium (BioWhittaker) containing 10 mM HEPES pH 7.2 and plated in 96-well tissue culture plates at a concentration of 1.7 x 10^6 cells/well. Cells were treated with 50 µM thimerosal (Sigma)/1 mM CaCl2/1 mM MgCl2 for 15 minutes at 37°C 5% CO2, then treated with compounds at 1000, 200, 40, 8, 1.6, 0.32, 0.064, and 0 nM in a final DMSO concentration of 0.01 % in duplicate for 10 minutes. Neutrophils were stimulated with 1 µM fMLF for 30 minutes, then lysed by the addition of methanol (20% final concentration) and frozen in a dry ice/isopropanol bath for 10 minutes. Lysates were stored at -70°C until the LTB4 content was measured by competitive LTB4 ELISA (R&D Systems).

[4] = Aqueous equilibrium solubility in pH 7.4 buffer; format: physicochemical; conditions: pH 7.4
Method: Equilibrium solubilities were measured in pH 7.4 aqueous buffer. The pH 7.4 buffer was prepared by adjusting the pH of a 0.07 M NaH2PO4 solution to 7.4 with 10 N NaOH. The ionic strength of the solution was 0.15. At least 1 mg of powder was combined with 1 ml of buffer to make >1 mg/ml mixture. These samples were shaken for >2 hours and left to stand overnight at room temperature. The samples were then filtered through a 0.45-µm Nylon syringe filter that was first saturated with the sample. The filtrate was sampled twice, consecutively. The filtrate was assayed by HPLC against standards prepared in 50% methanol.

[5] = tested on: subjects with moderate to severe plaque-type psoriasis; test: Phase 2 randomized double-blind placebo-controlled study in moderate to severe plaque-type psoriasis; format: in vivo, human
Method: This phase 2, multicenter, randomized, double-blind, placebo-controlled, parallel-group, dose-comparison study evaluated the efficacy and safety of Compound A in subjects with moderate to severe plaque-type psoriasis who were candidates for systemic therapy.
This study included a 12-week treatment phase followed by a 4-week observational follow-up phase. A total of 260 subjects were randomized to receive Compound A 20 mg BID, Compound A 20 mg QD, or placebo for 12 weeks. The primary endpoint for this study was the proportion of subjects treated with Compound A who achieved a 75% reduction in Psoriasis Area and Severity Index score ("PASI-75") at week 12/last treatment in reference to the baseline visit. Last treatment is defined as the last PASI assessment completed during the 12-week treatment phase.

[6] = Nonresponder, 20 mg orally daily, signed change
[7] = 20 mg BID, week 12/last treatment

Sequence of PDE7 purified from Hut78 human T cells (Q13946 whole entry): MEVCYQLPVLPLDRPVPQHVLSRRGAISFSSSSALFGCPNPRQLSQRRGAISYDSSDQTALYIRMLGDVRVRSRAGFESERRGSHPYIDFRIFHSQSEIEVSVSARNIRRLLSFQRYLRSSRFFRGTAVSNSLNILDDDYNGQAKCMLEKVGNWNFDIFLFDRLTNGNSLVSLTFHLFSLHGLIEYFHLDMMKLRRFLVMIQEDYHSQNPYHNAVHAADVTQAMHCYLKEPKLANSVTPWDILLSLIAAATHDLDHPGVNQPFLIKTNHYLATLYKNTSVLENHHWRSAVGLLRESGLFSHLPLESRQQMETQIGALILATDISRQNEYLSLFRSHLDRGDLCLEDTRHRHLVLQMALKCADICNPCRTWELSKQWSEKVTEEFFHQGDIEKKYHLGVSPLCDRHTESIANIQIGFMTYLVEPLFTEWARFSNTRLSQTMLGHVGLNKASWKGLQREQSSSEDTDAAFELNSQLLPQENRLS

CCOc1cc(C(CS(C)(=O)=O)N2C(=O)c3cccc(NC(C)=O)c3C2=O)ccc1OC (single isomer, unassigned; (+)) [Compound A, (+)-2-[1-(3-ethoxy-4-methoxyphenyl)-2-methylsulfonylethyl]-4-acetylaminoisoindoline-1,3-dione]
treatment-related adverse event: headache ([1]; 20 mg orally daily for 29 days): 26.3% | treatment-related adverse event: nausea ([1]; 20 mg orally daily for 29 days): 15.8% | patients demonstrating a 20% reduction in epidermal skin thickness ([1]; 20 mg orally daily for 29 days, Day 29, 8 of the 15 patients with evaluable biopsies): 53.3% | mean reduction of epidermal thickness ([1]; 20 mg orally daily, Day 29, all 15 subjects with evaluable biopsies, p=0.015): 20.5% | safety in subjects with severe plaque-type psoriasis ([1]; 20 mg p.o. QD for 29 days): safe | patients demonstrating improvement in the static Physician's Global Assessment (sPGA) ([1]; 9 of the 17 evaluable patients, 29 days of treatment): 52.9% | patients showing a reduction from baseline in psoriasis body surface area (BSA) ([1]; 10 of the 17 evaluable patients, 29 days of treatment): 58.8% | patients showing a >50% reduction from baseline in total PASI score ([1]; Day 29, 3 patients of 19 enrolled): 15.8% | subjects demonstrating improvement in their PASI ([1]; Day 29, 14 of the 19 subjects enrolled): 73.7% | enrolled patients showing a reduction from baseline in psoriasis body surface area (BSA) ([1]; Day 29, of enrolled patients): 52.6% | enrolled patients showing an improvement in their sPGA ([1]; Day 29, of enrolled patients): 47.4% | Percentage Reduction of Key Inflammatory Markers at Day 29: CD11c, Dermis [1, 6]: -21.19% | Percentage Reduction of Key Inflammatory Markers at Day 29: CD11c, Epidermis [1, 6]: -2.54% | Percentage Reduction of Key Inflammatory Markers at Day 29: CD83+, Dermis [1, 6]: +0.46% | Percentage Reduction of Key Inflammatory Markers at Day 29: CD83+, Epidermis [1, 6]: -16.31% | Percentage Reduction of Key Inflammatory Markers at Day 29: T-cells, Dermis [1, 6]: -17.34% | Percentage Reduction of Key Inflammatory Markers at Day 29: T-cells, Epidermis [1, 6]: +8.74% | reduction of mRNA expression of iNOS ([1]; lesional skin after 29 days of treatment, RT-PCR, p=0.025): 66.5% | PDE Specificity Ratio PDE4/PDE5 ([2]; from above data): >30000 fold | inhibition at 10 µM ([2]; read-out: PDE5 (% inhib at 10 µM)): 3% | IC50 ([3]; 10 nM cAMP): 20500 nM | PDE Specificity Ratio PDE7 IC50/PDE4 IC50 ([3]; from above data): 279 fold | IC50 (TNF-α): 294 nM | IC50 (LTB4): 2.48 nM | Measured solubility [4]: 12 µg/mL | greater aqueous solubility than the racemic mixture [4]: 3.5 fold | study drug-related serious adverse events ([5]; 20 mg BID or 20 mg QD for 12 weeks): No study drug-related serious adverse events | mean decrease in PASI from baseline [5, 7]: 52% | proportion of subjects who achieved PASI-50 [5, 7]: 57% | proportion of subjects who achieved PASI-90 [5, 7]: 14% | proportion of subjects who achieved a PASI-75 ([5]; 20 mg BID, week 12/last treatment, P=0.023 vs placebo): 24% | tolerability and safety ([5]; 12 weeks of treatment): well tolerated and safe
